Assay results as given in PubChem BioAssay (NCI).
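All cell lines were grown in 96-well plates and treated with compound for 48 hours. GI50 = concentration required for 50% inhibition of growth. TGI denotes the concentration required for complete inhibition of growth.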

Legend:
Test in all cases: DTP human tumour cell line panel, 48 h
HCC-2998 colon = system: HCC-2998 colon
HOP-92 NSCLC = system: HOP-92 NSCLC
HT29 colon = system: HT29 colon
LOX IMVI melanoma = system: LOX IMVI melanoma
M14 melanoma = system: M14 melanoma
MALME-3M melanoma = system: MALME-3M melanoma
NCI-H226 lung = system: NCI-H226 lung
NCI-H23 lung = system: NCI-H23 lung
U251 CNS = system: U251 CNS
HS 578T breast = system: HS 578T breast

Row | Compound | TGI (HCC-2998 colon) | TGI (HOP-92 NSCLC) | TGI (HT29 colon) | TGI (LOX IMVI melanoma) | TGI (M14 melanoma) | TGI (MALME-3M melanoma) | TGI (NCI-H226 lung) | TGI (NCI-H23 lung) | TGI (U251 CNS) | GI50 (HCC-2998 colon) | GI50 (HOP-92 NSCLC) | GI50 (HT29 colon) | GI50 (LOX IMVI melanoma) | GI50 (M14 melanoma) | GI50 (MALME-3M melanoma) | GI50 (NCI-H226 lung) | GI50 (NCI-H23 lung) | GI50 (U251 CNS) | GI50 (HS 578T breast) | TGI (HS 578T breast)
1 | COc1ccc(/C=N/NS(=O)(=O)c2ccccc2)cc1 | > 100 µM | > 100 µM | > 100 µM | > 100 µM | > 100 µM | > 100 µM | > 100 µM | > 100 µM | > 100 µM |  |  |  |  |  |  |  |  |  |  | 
2 | Cc1ccc(C2CC(c3ccc(Nc4ccnc5cc(Cl)ccc45)cc3)=NN2C=O)cc1 (centres undefined) | > 100 µM | > 100 µM | > 100 µM | > 100 µM | > 100 µM | > 100 µM | > 100 µM | > 100 µM | > 100 µM | 7.44 µM | 2.14 µM | 6.09 µM | 4.11 µM | 6.88 µM | > 100 µM | > 100 µM | 6.93 µM | > 100 µM |  | 
3 | CCCCC1(C(NC(=O)c2ccccc2Cl)c2ccncc2)C(=O)N(c2ccccc2)N(c2ccccc2)C1=O (centres undefined) | > 100 µM | > 100 µM | > 100 µM | > 100 µM | > 100 µM | > 100 µM | > 100 µM | > 100 µM | > 100 µM |  |  |  |  |  |  |  |  |  |  | 
4 | Cc1cc(S(N)(=O)=O)c(S/C(=N\NS(=O)(=O)c2ccccc2)c2ccc(Cl)cc2)cc1Cl |  | 84.9 µM | > 100 µM | > 100 µM | > 100 µM | > 100 µM | > 100 µM | > 100 µM | > 100 µM |  | 30.3 µM | > 100 µM | > 100 µM | 87.9 µM | 65.4 µM | > 100 µM | 87.9 µM | > 100 µM | 39.8 µM | > 100 µM
5 | COc1ccc(-c2csc(Nc3cccc(-c4csc(C)n4)c3)n2)cc1 |  | > 50 µM | > 50 µM | 11.8 µM | 14.2 µM |  | 19.7 µM | 10.1 µM | > 27.6 µM |  | 24.7 µM | 2.57 µM | 0.389 µM | 2.79 µM |  | 6.12 µM | 0.931 µM | 0.783 µM | 4.68 µM | > 37.9 µM
6 | C=C1CC[C@H]2C(C)=CC[C@H]3C(=C)C(=O)O[C@@H]3[C@@H]12 | > 100 µM | > 100 µM | > 100 µM | > 100 µM | > 100 µM | > 100 µM | > 100 µM | > 100 µM | > 100 µM |  |  |  |  |  |  |  |  |  |  | 
7 | Cn1cnnc1[S-].[Au+].c1ccc([PH+](c2ccccc2)c2ccccc2)cc1 | 3.23 µM | 3.31 µM |  | 2.71 µM | 2.99 µM | 2.91 µM | 9.08 µM |  |  | 1.8 µM | 1.88 µM |  | 1.35 µM | 1.4 µM | 1.49 µM | 2.75 µM |  |  |  | 
8 | O=C(O)c1ccccc1NCn1c(=S)sc2ccccc21 |  | > 100 µM | > 100 µM | 43.4 µM | > 100 µM | > 100 µM |  | 63.4 µM | > 100 µM |  |  |  |  |  |  |  |  |  |  | > 100 µM
9 | O=c1cccc(Cl)[nH]1 |  | > 100 µM | > 100 µM | > 100 µM | > 100 µM | > 100 µM | > 100 µM | > 100 µM | > 100 µM |  |  |  |  |  |  |  |  |  |  | > 100 µM
10 | COc1cc2c(c(OC)c1OC)C(=O)NCCC2 | > 100 µM | > 100 µM | > 100 µM | > 100 µM | > 100 µM | > 100 µM | > 100 µM | > 100 µM | > 100 µM |  |  |  |  |  |  |  |  |  |  | 
11 | Cc1ccc(S(=O)C(C)C(Cl)c2ccccc2)cc1 (centres undefined) | > 100 µM | > 100 µM | > 100 µM | > 100 µM | > 100 µM |  | > 100 µM | > 100 µM | > 100 µM |  |  |  |  |  |  |  |  |  |  | 
12 | COc1cc(OC)c2c(=O)c3cccc([N+](=O)[O-])c3n(C)c2c1 |  |  | > 100 µM | > 100 µM | > 100 µM | > 100 µM |  | > 100 µM | > 100 µM |  |  |  |  |  |  |  |  |  |  | 
13 | O=C1OC(=O)C([Se]c2ccccc2)=C1[Se]c1ccccc1 |  | > 100 µM | > 100 µM | > 100 µM | > 100 µM | > 100 µM | > 100 µM | > 100 µM | > 100 µM |  |  |  |  |  |  |  |  |  |  | 
14 | C[C@H]1CC[P+](C)(c2ccccc2)C1 (some centres undefined) | > 100 µM |  | > 100 µM | > 100 µM | > 100 µM | > 100 µM | > 100 µM | > 100 µM | > 100 µM |  |  |  |  |  |  |  |  |  |  | 
15 | N#CCc1cccc(CC#N)c1Br |  | > 100 µM | > 100 µM | > 100 µM | > 100 µM | > 100 µM | > 100 µM | > 100 µM | > 100 µM |  |  |  |  |  |  |  |  |  |  | 
16 | O=C1CCC(=O)N1Sc1ccccc1 |  | > 100 µM |  | > 100 µM | > 100 µM |  |  | > 100 µM | > 100 µM |  |  |  |  |  |  |  |  |  |  | 
17 | CCN(c1ccccc1)[C@H]1C(=O)N(c2ccc([N+](=O)[O-])cc2)[C@H]1c1ccc(OC)cc1 | > 100 µM | 81.8 µM | > 100 µM |  |  | > 100 µM | > 100 µM | > 100 µM | > 100 µM |  |  |  |  |  |  |  |  |  |  | 
18 | O=NNc1ccc(S(=O)(=O)c2ccc3ccccc3c2)cn1 |  |  | > 100 µM |  | > 100 µM | > 100 µM | > 100 µM | > 100 µM | > 100 µM |  |  |  |  |  |  |  |  |  |  | > 100 µM
19 | CC(C)OP(=O)(O)c1ncc(-c2ccc(C(F)(F)F)cc2)c(NC2CCCCCC2)n1 | > 100 µM |  | > 100 µM |  | > 100 µM | > 100 µM | > 100 µM | > 100 µM | > 100 µM | > 100 µM |  | > 100 µM |  | > 100 µM | > 100 µM | > 100 µM | > 100 µM | 77.9 µM | > 100 µM | > 100 µM
20 | COc1ccc(C)cc1NC(=S)C#N | > 100 µM | > 100 µM | > 100 µM | > 100 µM | > 100 µM |  | > 100 µM | > 100 µM | > 100 µM |  |  |  |  |  |  |  |  |  |  | 
21 | Nc1ccccc1C#Cc1ccccc1C#Cc1cccs1 |  | 22.2 µM | 49 µM | 27.5 µM | 34.1 µM |  | 43.3 µM | 34.1 µM | 27.3 µM |  | 5.87 µM | 19.4 µM | 14 µM | 17.4 µM |  | 17.7 µM | 17.2 µM | 13.6 µM |  | 
22 | COc1cccc(/C=N\NC(=O)C(C)SC(C)C(=O)N/N=C/c2cccc(OC)c2)c1 (centres undefined) | 47.5 µM | 38.8 µM | > 100 µM |  | > 100 µM | > 100 µM | 47.5 µM | 73.2 µM | 35.9 µM |  |  |  |  |  |  |  |  |  |  | 
23 | C1=CC2CCC1CN2CCC1CNc2ccccc21 (centres undefined) | > 100 µM | > 100 µM | > 100 µM | > 100 µM | > 100 µM | > 100 µM | > 100 µM | > 100 µM | > 100 µM |  |  |  |  |  |  |  |  |  |  | 
24 | Cn1c(=O)c2c(nc(N/N=C/c3ccccc3C(=O)O)n2C)n(C)c1=O |  | > 100 µM | > 100 µM | > 100 µM | > 100 µM | > 100 µM | > 100 µM | > 100 µM | > 100 µM |  |  |  |  |  |  |  |  |  |  | > 100 µM
25 | Nn1c(-c2ccc(Cl)cc2)nc2c(-c3ccc(Cl)cc3)nc3ccc(Cl)cc3c2c1=O |  | 31.6 µM | > 100 µM | 32.9 µM | > 100 µM | 65.4 µM | > 100 µM | > 100 µM | 12.7 µM |  | 13.6 µM | > 100 µM | 5.77 µM | 15.1 µM | 21.3 µM | 40.8 µM | 33 µM | 3.07 µM | 12.1 µM | 85 µM
26 | COc1ccc(-c2cc(/C=C/C(=O)c3ccc(N)cc3)[nH]n2)cc1 | 3.36 µM |  | 8.11 µM |  | 6.54 µM | 6.22 µM | 5.57 µM | 13.1 µM | 2.57 µM | 1.83 µM |  | 2.75 µM |  | 2.67 µM | 2.18 µM | 2.05 µM | 3.22 µM | 1.24 µM | 4.04 µM | 24.4 µM
27 | COc1ccc(C2NC(=S)NC3=C2CCOc2c3ccc3ccccc23)cc1 (centres undefined) |  | > 100 µM | > 100 µM | > 100 µM | > 100 µM | > 100 µM | > 100 µM | > 100 µM | > 100 µM |  | 77.1 µM | 36.6 µM | > 100 µM | > 100 µM | 49.8 µM | 58.5 µM | > 100 µM | > 100 µM | 47.4 µM | > 100 µM
28 | Clc1ccc(CN2CCCN(Cc3ccc(Cl)cc3)C2c2cc3ccccc3c3ccccc23)cc1 |  | > 100 µM | > 100 µM | > 100 µM | 34.2 µM | 37.6 µM | > 100 µM | > 100 µM | > 100 µM |  |  |  |  |  |  |  |  |  |  | > 100 µM
29 | COc1ccc(Br)c(C(=O)N2CCc3ccccc32)c1N | > 100 µM | > 100 µM | > 100 µM | > 100 µM | > 100 µM | > 100 µM | > 100 µM | > 100 µM | > 100 µM |  |  |  |  |  |  |  |  |  |  | 
30 | CCOC1Oc2ccc(C)cc2C(=O)/C1=C\Nc1ccc(S(N)(=O)=O)cc1 (centres undefined) |  | 29.6 µM | > 50 µM | > 50 µM | 21.5 µM |  | > 50 µM | 12.4 µM | > 50 µM |  | 8.9 µM | 15.6 µM | 13.7 µM | 9.32 µM |  | 22.3 µM | 2.92 µM | 12.9 µM | 14.5 µM | 42.6 µM
